Test results: patent US11478445B2, “Method for treating acute myeloid leukemia” (Bionomics Limited, priority 2017, dated 2022)
“Also recorded” adds a separate entry of the source.

Experiments:
Assay type in all cases: cell-based, human
[1] = test system: Noxa; test: Western blot for Noxa in primary AML sample L-AML6; conditions: L-AML6, 48 h
Procedure: (§1) Cells were harvested (4×10^6 for cell lines and 7×10^6 for L-AMLs) and washed 3 times with cold PBS (centrifuged at 4° C.). Lysis buffer was prepared with NP40 Cell Lysis Buffer (ThermoFisher Scientific), cOmplete protease inhibitor (Roche, 046993116001), PhosStop (Roche, 04906837001) and Pefablock (Roche, 11585916001) at the recommended concentrations. After the washes, cells were resuspended in 50 μL of lysis buffer, vortexed and incubated on ice for 30 min. Samples were vortexed every 10 min. After 30 min incubation, samples were centrifuged at 14,000 g at 4° C. for 10 min and supernatants were transferred to tubes. Protein was quantified using the DC Protein Assay kit (BioRad) per manufacturer's protocol. 50 μg of cell lines lysate or 20 μg of L-AML6 lysate were loaded for SDS-PAGE. Protein was transferred from the gels into PVDF membranes using a semi dry transfer apparatus (BioRad). The membranes were blocked for 1 h at room temperature with 5% skim milk in 0.1% TBS-t and then incubated with gentle shaking with primary antibodies overnight at 4° C. […]
(§2) Western blot analysis. […] For L-AML6 cells P-JNK^Thr183/Tyr185 and Noxa expression were determined using the specific antibodies that have been validated in the cell line experiments (FIG. 4). […]

[2] = test system: P-JNK^Thr183/Tyr185; test: Western blot for P-JNK in primary AML sample L-AML6; conditions: L-AML6, 48 h
Procedure: as §1, §2

[3] = test system: GPR56+ LSC containing population of AML samples; test: LSC detection by flow cytometry (CD34, CD38, GPR56)
Procedure: 8×10^5 cells (800 μL) were harvested in 5 mL tubes and fixed with 1.6% formaldehyde for 10 min at room temperature. The samples were then washed once with PBS and once with PBS/1% BSA. The cell pellets were resuspended in 100 μL PBS/1% BSA containing 5 μL of anti-CD34-APC (BD Biosciences, clone 8G12, catalogue 340441, lot 6183704), 5 μL of anti-CD38-PECy7 (BD Biosciences, 335790, lot 3353807) and 5 μL of anti-GPR56-PE (Biolegend, 358204, lot B208353) and incubated at room temperature for 1 h in the dark. Finally, cells were washed twice with PBS and resuspended in 200 μL of PBS for analysis on an LSRFortessa (BD Biosciences) flow cytometer. Results were analysed with FCS Express 4 Flow Research Edition software (De Novo Software).
LSC analysis. AML BMMNC samples were first gated for viable cells and then the fraction of GPR56+ cells was determined. According to the report by Pabst and collaborators (Pabst et al, Blood 2016), in CD34^high AML samples the GPR56+ population containing LSCs is present within the CD34+ cells, while in CD34^low AML samples the GPR56+ population containing LSCs is present in both CD34+ and CD34− cell populations. Therefore, the LSC containing subpopulation was estimated from the CD34+/GPR56+ gate for AML235, and from the GPR56+/CD34+ and GPR56+/CD34− gates in AML136 and AML480 (FIG. 6A). A decrease in these subpopulations in response to EX 1 would be consistent with the drug targeting the important LSC-containing compartment. […] On the other hand, OXi4503 treatment, when compared to vehicle control (DMSO), had little effect on AML136 and no effect on AML235 and AML480 (FIG. 6B).

SMILES	Noxa expression [1]	P-JNK level ([2]; 500 nM)	GPR56+ LSC containing cell population ([3]; AML136, AML235, AML480, 48 h)	concentration at which the LSC population is decreased (as low as) ([3]; AML samples, 48 h, FIG. 6C)	P-JNK level ([2]; indicated doses)	effect on GPR56+ LSC containing population vs DMSO ([3]; AML136, 48 h)	effect on GPR56+ LSC containing population vs DMSO ([3]; AML235 and AML480, 48 h)
COc1cc(C(=O)c2c(C)oc3c(O)c(OC)ccc23)cc(OC)c1OC [EX 1, 2-Methyl-7-hydroxy-3-(3,4,5-trimethoxybenzoyl)-6-methoxybenzofuran]	no change was observed; also recorded: does not appear to change	small increase; also recorded: induced	affected at different rates	20 nM	–	–	–
COc1cc(/C=C\c2ccc(OC)c(OP(=O)(O)O)c2OP(=O)(O)O)cc(OC)c1OC [OXi4503, reference compound]	no change was observed; also recorded: does not appear to change	–	–	–	no apparent change	little effect	no effect
